Literature values, collected in paper PMC11949389 (Polish Journal of Microbiology, 2025).
Values after ≈ are worked out from the molar mass of the structure shown.

Assays:
Escherichia coli = conditions: Escherichia coli; ref Owen et al. 2019; Sayout et al. 2020; Noumi et al. 2023
[1] = test system: Pseudomonas aeruginosa Enterococcus faecalis; conditions: ref Mechmechani et al. 2022
TetK efflux pump = conditions: S. aureus, ref Sousa Silveira et al. (2020)
[2] = test system: Extended-spectrum beta-lactamases Escherichia coli; conditions: ESBL Escherichia coli; ref Khan et al. 2020
[3] = test system: Staphylococcus aureus Pseudomonas fluorescens; conditions: ref Wang et al. 2020b
Enterococcus sp. = conditions: ref Caballero Gómez et al. 2022
[4] = test system: carbapenem-resistant E. coli and P. aeruginosa; conditions: ref Owen et al. (2019)
Candida species = conditions: ref Stringaro et al. (2022)
Campylobacter jejuni = conditions: C. jejuni; ref Šimunović et al. (2020)
Candida albicans = conditions: Candida albicans; ref Sharifzadeh et al. 2019; Iraji et al. 2020; Shaban et al. 2020; Stringaro et al. 2022; Biernasiuk et al. 2022
Staphylococcus sp. = conditions: ref Caballero Gómez et al. 2022
[5] = test system: carbapenem and polymyxin-resistant Klebsiella pneumoniae; conditions: ref de Souza et al. (2021)

Cc1ccc(C(C)C)cc1O [Carvacrol]
MIC/Sensitivity (Escherichia coli): 297435.6 µg/mL (≈ 1980 mM)
Mechanisms of action [1]: • Cell membrane destruction • Leakage of the intercellular pool • Anti-biofilm properties • Increased extracellular K+ ions concentrations
efflux pump inhibition (TetK efflux pump): did not act as efflux pump inhibitors
Mechanisms of action [2]: • Disintegration of bacterial cell membranes • Elevation of reactive oxygen species levels • Protected macrophage cells from bacterial invasion • Increased the release of K+ ions, ATP, and cellular DNA • Anti-biofilm properties
Mechanisms of action [3]: • Targeted extracellular polymeric substances • Disruption of biofilm structures
MIC/Sensitivity (Enterococcus sp.): 100 to 450 µg/mL
activity [4]: ineffective
MIC (Candida species): 97.5 to 195 µg/mL
efflux pump inhibition (Campylobacter jejuni): weaker effect
MIC/Sensitivity (Candida albicans): 43.75 to 250 µg/mL
MIC/Sensitivity (Staphylococcus sp.): 200 to 400 µg/mL
MIC [5]: 130 to 260 µg/mL
